Experimental data from EP1806348A2, “Pyrido (2,3-D)Pyrimidines as inhibitors of cellular proliferation” (Warner-Lambert Company LLC, priority 1997, dated 1998).
Where two headings read alike, the source gives them in different places.

Target: cdk4/D (Homo sapiens, UniProt P11802)
Test: Cyclin-dependent kinase 4 (cdk4) enzyme assay, 32P incorporation into retinoblastoma
Type: biochemical
Conditions: for inhibition at 40 µM: read-out: cdk4/D % inhibition at 40 µM
Method: A typical assay, for instance, measures inhibitory activity against the cyclin D dependent kinase 4 enzyme (cdk4/D). […] The cdk 4 assay was carried out as follows.
All components except the ATP were added to the wells, and the plate was placed on a plate mixer for 2 minutes. […] The reaction was terminated by addition of 0.1 mL of 20% trichloroacetic acid (TCA). The plate was kept at 4°C for at least 1 hour to allow the substrate to precipitate. The wells were then washed five times with 0.2 mL of 10% TCA and ^32P incorporation was determined with a beta plate counter (Wallac Inc., Gaithersburg, MD).

[1] = Table 1, 25 µM ATP, retinoblastoma substrate

Sequence of cdk4/D (P11802 whole entry): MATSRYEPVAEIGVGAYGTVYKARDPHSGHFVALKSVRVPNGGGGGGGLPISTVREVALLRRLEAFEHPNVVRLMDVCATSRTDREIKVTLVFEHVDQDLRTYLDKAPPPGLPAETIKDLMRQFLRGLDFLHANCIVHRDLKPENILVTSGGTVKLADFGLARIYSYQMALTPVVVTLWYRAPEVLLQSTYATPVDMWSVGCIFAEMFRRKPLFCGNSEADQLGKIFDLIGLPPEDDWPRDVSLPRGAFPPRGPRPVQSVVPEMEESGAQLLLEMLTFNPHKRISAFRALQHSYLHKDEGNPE
Sequence of cdk4/D (P24385 whole entry, further chain): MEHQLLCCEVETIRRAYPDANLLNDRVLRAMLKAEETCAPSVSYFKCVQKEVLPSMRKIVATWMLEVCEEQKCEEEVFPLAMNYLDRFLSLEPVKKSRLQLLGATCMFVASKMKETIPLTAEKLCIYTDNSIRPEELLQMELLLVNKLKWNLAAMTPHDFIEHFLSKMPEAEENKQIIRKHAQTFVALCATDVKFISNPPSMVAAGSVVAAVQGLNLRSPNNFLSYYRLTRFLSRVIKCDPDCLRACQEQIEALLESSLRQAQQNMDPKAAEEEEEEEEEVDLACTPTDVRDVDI

IC50 [1] [µM]	SMILES	further results
45	Cn1c(=O)ccc2cnc(NCCc3ccccn3)nc21 [Example 66, 8-Methyl-2-(2-pyridin-2-yl-ethylamino)-8H-pyrido[2,3-d]pyrimidin-7-one]	
25	CC(C)Nc1ncc2ccc(=O)n(C)c2n1 [Example 67, 2-Isopropylamino-8-methyl-8H-pyrido[2,3-d]pyrimidin-7-one]	
4.3	CCN1C(=O)CCc2cnc(Nc3ccccc3)nc21 [Example 69, 8-Ethyl-2-phenylamino-5,8-dihydro-6H-pyrido[2,3-d]pyrimidin-7-one]	
0.141	CCC(CC)n1c(=O)ccc2cnc(Nc3ccccc3)nc21 [Example 74, 8-(1-Ethylpropyl)-2-phenylamino-8H-pyrido[2,3-d]pyrimidin-7-one]	
0.3	CCn1c(=O)ccc2cnc(Nc3ccc(N4CCOCC4)cc3)nc21 [Example 79, 8-Ethyl-2-(4-morpholin-4-yl-phenylamino)-8H-pyrido[2,3-d]pyrimidin-7-one]	
1.8	CCn1c(=O)c(C)cc2cnc(Nc3ccccc3)nc21 [Example 83, 8-Ethyl-6-methyl-2-phenylamino-8H-pyrido[2,3-d]pyrimidin-7-one]	
0.2	CCC(C)n1c(=O)ccc2cnc(Nc3ccccc3)nc21 (stereo not drawn) [Example 85, 8-sec-Butyl-2-phenylamino-8H-pyrido[2,3-d]pyrimidin-7-one]	
2.4	COCCn1c(=O)ccc2cnc(Nc3ccccc3)nc21 [Example 86, 8-(2-Methoxyethyl)-2-phenylamino-8H-pyrido[2,3-d]pyrimidin-7-one]	
1.4	CCn1c(=O)ccc2cnc(Nc3cccc(F)c3)nc21 [Example 89, 8-Ethyl-2-(3-fluorophenylamino)-8H-pyrido[2,3-d]pyrimidin-7-one]	

Second part, the compound before the results:

SMILES	IC50 [1] [µM]	further results
COCn1c(=O)ccc2cnc(Nc3ccccc3)nc21 [Example 37, 8-Methoxymethyl-2-phenylamino-8H-pyrido[2,3-d]pyrimidin-7-one]	4.2	
O=c1ccc2cnc(Nc3ccccc3)nc2n1CC1CO1 (stereo not drawn) [Example 39, 8-Oxiranylmethyl-2-phenylamino-8H-pyrido[2,3-d]pyrimidin-7-one]	5	
CCn1c(=O)ccc2cnc(Nc3ccc(-c4ccccc4)cc3)nc21 [Example 49, 2-(Biphenyl-4-ylamino)-8-ethyl-8H-pyrido[2,3-d]pyrimidin-7-one]	2	
CCn1c(=O)ccc2cnc(Nc3ccc(O)cc3)nc21 [Example 55, 8-Ethyl-2-(4-hydroxyphenylamino)-8H-pyrido[2,3-d]pyrimidin-7-one]	0.6	
CCn1c(=O)ccc2cnc(Nc3ccc(OCc4ccccc4)cc3)nc21 [Example 56, 2-Benzyloxyphenylamino-8-ethyl-8H-pyrido[2,3-d]pyrimidin-7-one]	25	
CCn1c(=O)ccc2cnc(Nc3ccc(OCCOC)cc3)nc21 [Example 57, 8-Ethyl-2-[4-(2-methoxyethoxy)phenylamino]-8H-pyrido[2,3-d]pyrimidin-7-one]	0.8	
COc1ccc(Cn2c(=O)ccc3cnc(Nc4ccccc4)nc32)cc1 [Example 58, 8-(4-Methoxybenzyl)-2-phenylamino-8H-pyrido[2,3-d]pyrimidin-7-one]	10	
CCCCNc1ncc2ccc(=O)n(C)c2n1 [Example 64, 2-Butylamino-8-methyl-8H-pyrido[2,3-d]pyrimidin-7-one]	40	
CCNc1nc(Nc2ccccc2)ncc1CCC(=O)OCC [Example 68, 3-(4-Ethylamino-2-phenylamino-pyrimidin-5-yl)propionic acid ethyl ester]		IC50 (Table 2, Formula II compounds): 90 µM; inhibition at 40 µM (at 40 µM, Table 2): 37%
CCNc1nc(Nc2ccccc2)ncc1C=CC#N [Example 72, 3-(4-Ethylamino-2-phenylamino-pyrimidin-5-yl)acrylonitrile]		inhibition at 40 µM: 18%
CCNc1nc(Nc2ccccc2)ncc1C(C)=CC(=O)OCC [Example 73, 3-(4-Ethylamino-2-phenylamino-pyrimidin-5-yl)-but-2-enoic acid ethyl ester]		inhibition at 40 µM (at 40 µM, Table 2): 58%
